Test results as given in EP0559845B1, “Use of compounds in preventing endotoxin shock” (priority 1991, dated 1992).

Assays:
[1] = tested on: LPS-induced GTPase activity in membranes isolated from RAW 264.7 cells; experiment: GTPase assay: effect of compounds on LPS-stimulated GTPase activity in macrophage membranes (release of 32Pi from γ-32P-GTP); type: biochemical
Text: We sought to directly evaluate the influence of LPS on possible G-protein function by examining agonist-enhanced GTPase activity, which is a hallmark of G-protein action. Moreover, because macrophages are one of the key cell types in the release of toxic mediators following an LPS challenge, we first assessed the capacity of LPS to influence GTPase activity in membranes isolated from RAW 264.7 cells, which is a highly LPS-responsive macrophage cell line. In these studies, GTPase activity was measured using a standard assay. The activity was determined using 2 µM γ-^32P-GTP in the presence of 0.1 mM ATP and 0.2 mM of the non-hydrolyzable ATP analog, AMPPNP, in order to minimize nonspecific nucleotidase activity in the membrane preparations.
The reaction is initiated by the addition of the γ-^32P-GTP and the mixture incubated at 30-37°C for 15 to 30 minutes. The reaction is terminated by the addition of 500µl of 5% trichloroacetic acid and 500µl of 0.1gm/ml acid-activated charcoal in 5% trichloroacetic acid. The samples are centrifuged at 14,000xg for 10 minutes, and a 550µl aliquot of the supernatant is removed for scintillation counting. The supernatant will contain the released ^32Pi. The extent of GTPase inhibition is measured by the decrease in the amount of ^32Pi released from γ-^32P-GTP. Appropriate controls include mixtures with one of the following omitted: (i) test compound, (ii) endotoxin, and (iii) ATP, ADP or AMPPNP.
The membranes are resuspended in 20 mM HEPES (pH 7.4), 1 mM dithiothreitol, 1 mM EDTA and 10 µg leupeptin/ml. Aliquots are stored at -70°C until assayed.

[2] = tested on: TNFα production by RAW264.7 macrophages; experiment: LPS-mediated TNF production by macrophages, measured by cell viability assay on actinomycin D-sensitized L929 cells; type: cell-based; conditions: RAW264.7 cells treated with 2-MeSATP (0-5µM), LPS and ATP
Experimental: Moreover, 2-MeSATP decreased LPS-mediated TNFα production by RAW264.7 macrophages. Production of TNF by the macrophage cells was measured by a "cell viability" assay. This is a standard assay described in Birkland, et al., Adv. Exp. Med. Biol. 256: 399-402 (1990). In brief, TNF in solution will kill actinomycin D-sensitized L929 cells, which can be measured by a loss of MTT dye reduction. The supernatent was removed from RAW264.7 cells treated with 2-MeSATP, LPS and ATP. The greater the amount of 2-MeSATP added (0-5µM), the less TNF was produced by the macrophage cells.

Q: For 2-methylthio-ATP [2-MeSATP], which “inhibition of LPS-stimulated GTPase activity” value [1] is on record?
A: The value was “blocks”.

Q: And the “stimulation (potentiation) of LPS-stimulated GTPase activity” value [1]?
A: Its value is “no stimulatory effect”.

Q: And the “antagonism of the stimulatory effects of ATP on LPS-inducible GTPase activity” value ([1]; 2-MeSATP 0-100µM)?
A: Its value is “did antagonize”.

Q: What about the “relative abilities of purines to stimulate LPS-enhanced GTPase” value ([1]; dose-response studies, rank order) of the same substance?
A: Its value is “ATP> ATPγS> ADP> AMPPNP>> β,γ methylene ATP> 2-MeSATP”.

Q: And the “LPS-mediated TNFα production” value [2]?
A: The value was “decreased”.

Q: And the “LPS-mediated TNFα production” value ([2]; listed as 2-methylthio-ATP)?
A: The value was “blocks”.
